The source of these data is patent US11976062B2, “Benzisoxazole compound” (OSAKA UNIVERSITY, priority 2018, dated 2024).

The target of one data set is T1, TRPC6 channel (Homo sapiens, UniProt Q9Y210).
T1 construct: expressed in transfected cells; host or cells: HEK293
T1 sequence (Q9Y210 1-931): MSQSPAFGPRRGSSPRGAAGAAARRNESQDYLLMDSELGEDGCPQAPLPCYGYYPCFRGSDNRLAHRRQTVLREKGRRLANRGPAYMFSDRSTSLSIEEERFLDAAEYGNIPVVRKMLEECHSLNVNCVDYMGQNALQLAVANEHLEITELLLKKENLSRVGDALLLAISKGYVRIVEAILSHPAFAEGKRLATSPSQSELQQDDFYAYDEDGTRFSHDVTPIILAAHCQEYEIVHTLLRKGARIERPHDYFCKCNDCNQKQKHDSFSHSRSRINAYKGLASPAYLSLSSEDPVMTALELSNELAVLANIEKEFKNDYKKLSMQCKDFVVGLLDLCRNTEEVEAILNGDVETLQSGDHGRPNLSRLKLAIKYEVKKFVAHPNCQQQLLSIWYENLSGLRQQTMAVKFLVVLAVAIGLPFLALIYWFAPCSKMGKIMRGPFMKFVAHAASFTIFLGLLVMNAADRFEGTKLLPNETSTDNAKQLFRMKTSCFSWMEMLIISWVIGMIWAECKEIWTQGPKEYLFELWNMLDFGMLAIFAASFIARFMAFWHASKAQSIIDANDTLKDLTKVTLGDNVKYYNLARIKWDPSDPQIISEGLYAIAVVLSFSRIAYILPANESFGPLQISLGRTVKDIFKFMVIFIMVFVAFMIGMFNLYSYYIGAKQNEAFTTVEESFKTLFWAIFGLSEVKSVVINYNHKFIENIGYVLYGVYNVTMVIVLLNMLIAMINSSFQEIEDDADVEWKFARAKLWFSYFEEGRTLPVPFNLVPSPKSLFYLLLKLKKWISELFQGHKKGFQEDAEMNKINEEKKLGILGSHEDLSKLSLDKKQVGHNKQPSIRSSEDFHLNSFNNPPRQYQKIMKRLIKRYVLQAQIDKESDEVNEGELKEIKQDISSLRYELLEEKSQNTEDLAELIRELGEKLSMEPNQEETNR
Briefly: Calcium assay using HEK293 cells transiently expressing TRPC6 channel, carbachol activation (Fura-2). The data set is classed as cell-based. The procedure: A TRPC6 gene was introduced into HEK293 cells (cells derived from human fetal kidney) by lipofection, and the TRPC6 channel was expressed on the cell membrane. Specifically, the plasmid DNA of TRPC6 (pCI-neo; Promega Corporation) was introduced into HEK293 cells using a lipofection reagent, and then cultured at 37° C. for 24 to 48 hours to express the TRPC6 channel on the cell membrane. In the same manner, HEK293 cells into which the TRPC3 gene was introduced were cultured, and the TRPC3 channel was expressed on the cell membrane.
The cultured cells were peeled off with trypsin and seeded on a cover glass again, followed by culturing the cells at 37° C. for 3 hours again. A Fura-2 AM calcium indicator was added to the medium, and the cells were cultured at 37° C. for 30 minutes to allow the cells to incorporate the indicator. For the extracellular solution, a Ca^2+-containing solution and a Ca^2+-free solution were prepared. • Ca^2+-containing solution: 2 mM CaCl2, 132 mM NaCl, 4 mM KCl, 1 mM MgCl2, 5 mM glucose, 5 mM HEPES (pH 7.4) • Ca^2+-free solution: 132 mM NaCl, 4 mM KCl, 1 mM MgCl2, 5 mM glucose, 5 mM HEPES (pH 7.4)
After the cells were added to the Ca^2+-containing solution, the following operation was performed while the fluorescence intensity (510 nm) of Fura-2 was measured at room temperature with an ARGUS CA-20 (Hamamatsu Photonics K.K.) over time. • 0 minutes: TRPC3-expressing cells or TRPC6-expressing cells are placed in a measurement chamber that contains the Ca^2+-containing solution. • After 30 seconds: The Ca^2+-containing solution is replaced with the Ca^2+-free solution. • After 1 minute: A predetermined amount of a test compound is added to the Ca^2+-free solution. • After 3 minutes: Carbachol (100 μM) is added to the Ca^2+-free solution. • After 7 minutes: The Ca^2+-free solution is replaced with the Ca^2+-containing solution that contains a test compound and carbachol […]. • After 15 minutes: Measurement is ended.
Compound 011 was used as the test compound, and the amount of the test compound added was 0.01, 0.1, 0.5, 1.0, 5.0, 10, or 50 μM. For the control, 0.1% DMSO was used in place of the test compound. Carbachol (cch) is a TRPC-channel-activating reagent. Applying carbachol to cells opens the TRPC channel and allows a large amount of Ca^2+ in the extracellular solution to flow into the cells. Fura-2 AM has high cell membrane permeability due to the presence of an AM group (acetoxymethyl group), and is thus easily incorporated into the cells. The AM group is hydrolyzed in the cells to become Fura-2. Thus, Fura-2 can form a chelate with Ca^2+ and is also unlikely to leak out of the cells due to the loss of the AM group.
In the same manner as in Test Example 1, the maximum calcium ion concentration was measured after 7 minutes from the start of measurement (i.e., after replacement with the Ca^2+-containing solution) by using TRPC6-expressing cells prepared in the same manner as in Test Example 1, except that 10 μM of Pyr 4 and 10 μM of compound 011, 031, 041, or 191 (test compound) were used. The average value of calcium ion concentrations up to 30 seconds after the start of measurement (the initial value of calcium ion concentration) was subtracted from the maximum calcium ion concentration, and the calculated value was determined to be the amount of increase in calcium ions. FIG. 3 illustrates the results.
The calcium ion concentration was measured in the same manner as in Test Example 2, except that 10 μM of compound 011, 361, 362(E), 362(Z), 371, 372(Z), 381, or 401 (test compound) was used, and Pyr 4 was not used, thereby determining the amount of increase in calcium ions. Table 2 illustrates the amount of increase in calcium ions for each test compound relative to the amount of increase in calcium ions in the control (DMSO) taken as 100%.

The next data set deals with dermal fibroblasts. Briefly: Fibrosis inhibition evaluation 1: cell morphology observation of dermal fibroblasts. Type of data set: cell-based, mice. The settings on record: dermal fibroblasts cultured 48 hours with TGFβ1.

Usually IC50 stands for the concentration needed to halve the response being measured. Consider `O=C(O)c1cnc(N2CCN(c3noc4cccc(C(F)(F)F)c34)CC2)c(Cl)c1` [Compound 011, 5-chloro-6-(4-(4-(trifluoromethyl)benzo[d]isoxazol-3-yl)piperazin-1-yl) nicotinic acid], for which the “suppression of TRPC6 channel activation (decrease in calcium ion influx, FIG. 3)” value on TRPC6 channel (10 μM test compound, carbachol) is listed as “activation of the TRPC6 channel was suppressed”. Further, the “amount of increase in calcium ions relative to control (DMSO) taken as 100%” value at TRPC6 channel (10 μM test compound, carbachol, TRPC6-expressing cells) is 21%. The “Ca2+ concentration in the cells reached after addition of carbachol” value on TRPC6 channel (TRPC6, FIG. 1, from about 100 nM, control (DMSO) about 280 nM) is listed as “about 140 nM”. In addition, the IC50 on TRPC6 channel (TRPC6-expressing HEK293 cells, carbachol 100 μM, from concentration-response curves, read-out: IC50 for inhibition of the TRPC6 channel) came to 4.6 µM. Besides, the “cell morphology / cell damage by microscopic observation” value with dermal fibroblasts is “no change in cell morphology and no cell damage”.
